Laboratory results as given in patent US6458764B1, “GRF analogs with increased biological potency” (Theratechnologies Inc., priority 1995, dated 2002).
Where no end group is shown, it is not given here. The star is where a group is joined. Hexenoyl(3E) = CC/C=C/CC(=O)*

How the values were obtained:
pig serum GH [1] = experiment: Intravenous GH-releasing potency in pigs (Example III); format: in vivo, pigs (Landrace x Yorkshire); conditions: for effect on GH area under the curve (0 to 300 minutes following injection): I.V., FIG. 3
Method: This experiment was conducted to test the I.V. acute GH-releasing potency of (Hexenoyl trans-3)0 hGRF (1-29) NH2, a GRF analog, in a model physiologically close to human and to compare it to that of hGRF(1-29)NH2.
(Hexenoyl trans-3)0 hGRF (1-29) NH2 is a combination of the natural hGRF(1-29)NH2 and natural fatty acids. This study was a multidose, single I.V. injection study.
ADMINISTRATION: intravenous acute injection.
(§1) TEST SYSTEM: Landrace x Yorkshire pigs.
DESIGN: […] pigs (4 spare animals) were cannulated (a catheter surgically implanted in one jugular vein) within on week, before the study. On days 1 and 7, cannulated animals were randomly distributed into 7 groups (n=4 pigs per group).
Blood samples for pGH assay were collected every 20 min from 1 hour before to 5 hours after GRF injections, with additional samplings 10 and 30 min after injection (n=21 samples). Blood samples are allowed to clot at +4° C. Serum will be harvested by centrifugation, stored at −20° C. and submitted to pGH assays.

serum IGF-I [2] = experiment: Comparative effects of GRF analogs on IGF-I levels in pigs (Example II, D-IGF-I, FIG. 1); format: in vivo, pigs (Landrace x Yorkshire); conditions: 20 μg/kg 2×/day S.C., days 1 to 5, n=8 pigs per group
Method: This was a 5-day treatment, twice a day S.C. administration of one single dose of each test article vs saline. This experiment was conducted to compare the efficacy of (Aminohexanoyl)0 hGRF (1-29) NH2, (Hexylformiate)0 hGRF (1-29) NH2, (Hexenoyl trans-2)0 hGRF (1-29) NH2, (Hexenoyl trans-3)0 hGRF (1-29) NH2 and (Muconoyl)0 hGRF (1-29) NH2 to that of(Hexanoyl)0 hGRF (1-29) NH2.
ADMINISTRATION: Two daily subcutaneous injections.
as §1
ANIMAL DESCRIPTION: Fifty six (56) growing barrows pigs weighing 35 kg at the time of purchase.
DESIGN: Fifty six (56) pigs were randomly distributed into 7 experimental groups (n=8 pigs per group). Each group received two daily S.C. administration of the following treatments (volume: 3 ml, S.C. injection).
Treatments were administered from day 1 to 5. Immediately before the injections, one blood sample were collected from each animal, and additional blood samples were collected on day 6.
Blood samples were allowed to clot, serum was harvested by centrifugation and submitted to IGF-I assays.
Results are shown in FIG. 1 as D-IGF-I, which is defined as the increase in IGF-I levels from day 1 (pretreatment levels) to day 6 (after 5 days of GRFs administrations).

pig serum GH [3] = experiment: Subcutaneous GH-releasing potency in pigs (Example IV); format: in vivo, pigs (Landrace x Yorkshire); conditions: for effect on GH area under the curve, 0 to 420 minutes following injection: S.C., FIG. 5; for duration of GH response following administration: one subcutaneous injection, FIG. 4
Method: This experiment was conducted to test the S.C. acute GH-releasing potency of (Hexenoyl trans-3)0 hGRF (1-29) NH2, a GRF analog, in a model physiologically close to human and to compare it to that of hGRF(1-29)NH2.
ADMINISTRATION: Subcutaneous acute injection.
as §1
DESIGN: Thirty six (36) pigs (4 spare animals) were cannulated (a catheter surgically implanted in one jugular vein) within one week, before the study. On days 1 and 7, cannulated animals were randomly distributed into 8 groups (n=4 pigs per group).
Blood samples for pGH assay were collected every 20 min from 1 hour before to 7 hours after GRF injections, (n=25 samples). Blood samples were allowed to clot at +4CC. Serum is harvested by centrifugation, stored at −20° C. and submitted to pGH assays.

IGF-1 levels in pig sera = experiment: Effect of hGRF(1-44)NH2 analogs on IGF-1 levels following S.C. chronic administration in growing male pigs (Example XI, IRMA); format: in vivo
Method: The objective of this experiment was to compare the effects of 8 different hGRF(1-44)NH2 analogues including TH 9507 on IGF-1 levels following S.C. chronic administration in growing male pigs.
Animal procedures were conducted as described in the protocol GRF-30 submitted Apr. 30, 1999, with the following modification: only 8 GRF analogues, including TH 9507, were provided by the sponsor. Accordingly, the study was performed on 30 pigs.
Laboratory procedures were conducted as follow: IGF-l levels were measured in pig sera using a commercial kit (DSL-5600) purchased from Diagnostic Systems Laboratories Inc., Tex., USA. Briefly, IGF-1 levels are quantified using a two-site immunoradiometric assay (IRMA) following acid-ethanol extraction.
Statistical analysis: IGF-1 data were subjected to a two-way repeated measures analysis of variance, with time (day 1, 3 or 6) and treatments (A to J) as variation factors pairwise multiple comparison procedures were then run by the Student-Newman-Keuls method. All statistical procedures were performed using the computerized SigmaStat software (Jandel Scientific). A P<0.05 was considered statistically significant.

[4] = metabolites have no residual biological activity; cited from earlier work
serum IGF-I [5] = experiment: Repeated S.C. administrations of GRF analogs, serum IGF-I levels in pigs (Example I, Experiments 1-3; radioimmunoassay); format: in vivo, pigs (Landrace x Yorkshire); conditions: for serum IGF-I, Day 1 (pretreatment): pretreatment baseline
Method: The objective of these experiments was to assess the potential of the GRF analogs as anabolic agents.
Therefore, in order to investigate the anabolic potency of the fatty acid-GRF analogs, their ability to increase IGF-I levels following repeated S.C. administrations in pig was evaluated.
26 Landrace x Yorkshire castrated male pigs (40-45 kg BW) were randomly distributed into 4 experimental groups:
Each animal was injected BID (twice a day) subcutaneously for 4 consecutive days. One blood sample was collected each morning prior to the first injection of the day, and the day after the last injection, for IGF-I measurement.
40 Landrace x Yorkshire castrated male pigs (40-45 kg BW) were randomly distributed into 5 experimental groups:
(§2) Each animal was injected BID (twice a day) subcutaneously for 5 consecutive days. One blood sample was collected each morning prior to the first injection of the day, and the day after the last injection, for IGF-I measurement.
48 Landrace x Yorkshire castrated male pigs (40-45 kg BW) were randomly distributed into 6 experimental groups:
as §2, with “The selected doses were 30 μg/kg for hGRF(1-44)NH2 analogs and 20 μg/kg for hGRF(1-29)NH2 analogs, which give identical doses on a molar basis. Each” for “Each”, “measurements.” for “measurement.”
IGF-I levels were measured in pig serum by double antibody radioimmunoassay after formic acid-acetone extraction, as previously described (Abribat T. et al., 1993, J. Endocrinol., 39:583-589). The extraction prior to radioimmunoassay is a necessary step to remove endogenous IGF-binding proteins.
In both experiments, the IGF-I data were analyzed by a two way repeated measure analysis of variance, with day and treatment (GRF analog) as sources of variation. Multiple comparison procedures were there run (Student-Newman Keuls method). A P<0.05 was considered as statistically significant.

[6] = one intravenous injection, 4 μg/kg, FIG. 2
[7] = Experiment 1, 20 μg/kg BID SC × 4 days, mean of 6 to 7
[8] = Experiment 2, 40 μg/kg BID SC × 5 days, mean of 8
[9] = Experiment 3, 30 μg/kg BID SC × 5 days, mean of 8

For “(Hexenoyl trans-3)0 hGRF (1-29) NH2 (YADAIFTNSYRKVLGQLSARKLLQDIMSR; HELM PEPTIDE1{[CC/C=C/CC(=O)[*:2]].Y.A.D.A.I.F.T.N.S.Y.R.K.V.L.G.Q.L.S.A.R.K.L.L.Q.D.I.M.S.R.[am]}$$$$V2.0; SMILES CC/C=C/CC(=O)N[C@@H](Cc1ccc(O)cc1)C(=O)N[C@@H](C)C(=O)N[C@@H](CC(=O)O)C(=O)N[C@@H](C)C(=O)N[C@H](C(=O)N[C@@H](Cc1ccccc1)C(=O)N[C@H](C(=O)N[C@@H](CC(N)=O)C(=O)N[C@@H](CO)C(=O)N[C@@H](Cc1ccc(O)cc1)C(=O)N[C@@H](CCCNC(=N)N)C(=O)N[C@@H](CCCCN)C(=O)N[C@H](C(=O)N[C@@H](CC(C)C)C(=O)NCC(=O)N[C@@H](CCC(N)=O)C(=O)N[C@@H](CC(C)C)C(=O)N[C@@H](CO)C(=O)N[C@@H](C)C(=O)N[C@@H](CCCNC(=N)N)C(=O)N[C@@H](CCCCN)C(=O)N[C@@H](CC(C)C)C(=O)N[C@@H](CC(C)C)C(=O)N[C@@H](CCC(N)=O)C(=O)N[C@@H](CC(=O)O)C(=O)N[C@H](C(=O)N[C@@H](CCSC)C(=O)N[C@@H](CO)C(=O)N[C@@H](CCCNC(=N)N)C(N)=O)[C@@H](C)CC)C(C)C)[C@@H](C)O)[C@@H](C)CC; UniProt P01286 32-60, looked up, fragment) [hexenoyl trans3-hGRF(1-29)NH2]”, the “effect on GH area under the curve (0 to 300 minutes following injection)” value (from here on “effect … (0 to 300 minutes following injection)”) (pig serum GH [1]; 0.25 μg/kg) was “significant response”, the “effect … (0 to 300 minutes following injection)” value (pig serum GH [1]; 1 μg/kg) was “significant response” and the “effect … (0 to 300 minutes following injection)” value (pig serum GH [1]; 4 μg/kg) was “significant response”. The “GH response in the first 60 minutes” value (pig serum GH [1]; [6]) was “moderate”, the “duration of GH release following injection” value (pig serum GH [1]; [6]) was “approximately 260 minutes” and the “D-IGF-I: increase in IGF-I levels from day 1 (pretreatment) to day 6” value (serum IGF-I [2]) was “significantly increased IGF-I levels”. For the same substance, the “effect on GH area under the curve, 0 to 420 minutes following injection” value (“effect … to 420 minutes following injection” below) (pig serum GH [3]; 5 μg/kg) was “significant increases of the GH AUC”, the “effect … to 420 minutes following injection” value (pig serum GH [3]; 20 μg/kg) was “significant increases of the GH AUC” and the “duration of GH response following administration” value (pig serum GH [3]; 5 μg/kg) was 240 min.
With “TH 9507: one of 8 different hGRF(1-44)NH2 analogues provided by the sponsor; structure not stated ({Hexenoyl(3E)}-YADAIFTNSYRKVLGQLSARKLLQDIMSRQQGESNQERGARARL-NH2)” the “IGF-1 levels on day 6 compared to basal levels on day 1” value (IGF-1 levels in pig sera; S.C. chronic administration in growing male pigs, FIG. 7) was “significantly increased IGF-1 levels” and the “IGF-1 levels following 5 days of injection” value (IGF-1 levels in pig sera; S.C. chronic administration in growing male pigs, saline group 190.1±21.0 ng/ml) was 279.1 ± 28.4 ng/mL.
In the case of “hGRF (1-29)NH2 [hGRF(1-29)NH2, reference compound]”, the “effect … (0 to 300 minutes following injection)” value (pig serum GH [1]; 4 μg/kg) is given as “significant effect on GH secretion”, the “duration of GH release following injection” value (pig serum GH [1]; [6]) is given as “approximately 60 minutes” and the “degradation in a serum medium” value [4] is given as “rapidly degraded”. For the same substance, the “effect on IGF-I levels” value (serum IGF-I [5]; Experiment 1, 20 μg/kg BID SC × 4 days) was “ineffective”, the “effect on IGF-I levels” value (serum IGF-I [5]; Experiment 1, 20 μg/kg BID SC × 4 days, listed as Human GRF(1-29)NH2) was “no effect on IGF-I levels” and the “serum IGF-I, Day 2” value (serum IGF-I [5]; [7]) was 235 ng/mL. The “serum IGF-I, Day 3” value (serum IGF-I [5]; [7]) was 263 ng/mL, the “serum IGF-I, Day 4” value (serum IGF-I [5]; [7]) was 258 ng/mL and the “serum IGF-I, Day 5” value (serum IGF-I [5]; [7]) was 262 ng/mL. For the same substance, the “serum IGF-I, Day 1 (pretreatment)” value (serum IGF-I [5]; [7]) was 252 ng/mL, the “serum IGF-I levels” value (serum IGF-I [5]; Experiment 2, 40 μg/kg BID SC × 5 days) was “remained stable” and the “serum IGF-I, Day 2” value (serum IGF-I [5]; [8]) was 243 ng/mL. The “serum IGF-I, Day 3” value (serum IGF-I [5]; [8]) was 267 ng/mL, the “serum IGF-I, Day 4” value (serum IGF-I [5]; [8]) was 275 ng/mL and the “serum IGF-I, Day 5” value (serum IGF-I [5]; [8]) was 267 ng/mL. For the same substance, the “serum IGF-I, Day 6” value (serum IGF-I [5]; [8]) was 256 ng/mL, the “serum IGF-I, Day 1 (pretreatment)” value (serum IGF-I [5]; [8]) was 244 ng/mL and the “effect … to 420 minutes following injection” value (pig serum GH [3]; 1.25 μg/kg) was “did not induce any significant GH response”. The “effect … to 420 minutes following injection” value (pig serum GH [3]; 5 μg/kg) was “did not induce any significant GH response”, the “effect … to 420 minutes following injection” value (pig serum GH [3]; 20 μg/kg) was “did not induce any significant GH response” and the “duration of GH response following administration” value (pig serum GH [3]; 5 μg/kg) was at most 60 min.
In the case of “hGRF(1-44)NH2 (YADAIFTNSYRKVLGQLSARKLLQDIMSRQQGESNQERGARARL-NH2) [reference compound]”, the “variations of IGF-1 concentrations in the study period” value (IGF-1 levels in pig sera; injected subcutaneously in pigs twice a day at 10 ug/kg, FIG. 7) is reported as “not able to induce any significant increase in IGF-1 levels”, the “effect on IGF-I levels” value (serum IGF-I [5]; Experiment 3, 30 μg/kg BID SC × 5 days, except a significant effect on day 5, not sustained on day 6) is reported as “little or no effect on IGF-I levels” and the “serum IGF-I, Day 2” value (serum IGF-I [5]; [9]) is reported as 254 ng/mL. The “serum IGF-I, Day 3” value (serum IGF-I [5]; [9]) was 285 ng/mL, the “serum IGF-I, Day 4” value (serum IGF-I [5]; [9]) was 297 ng/mL and the “serum IGF-I, Day 5” value (serum IGF-I [5]; [9]) was 303 ng/mL. The “serum IGF-I, Day 6” value (serum IGF-I [5]; [9]) was 296 ng/mL and the “serum IGF-I, Day 1 (pretreatment)” value (serum IGF-I [5]; [9]) was 245 ng/mL.
